ChEMBL document CHEMBL5042478, “Design, Synthesis, and Evaluation of VHL-Based EZH2 Degraders to Enhance Therapeutic Activity against Lymphoma” (J Med Chem, 2021)
The source made the active and inactive calls. No cut-off for these calls is given here.

Columns and labels:
SU-DHL-6 [1] = test: Antitumor activity against human SU-DHL-6 cells xenografted in nude Balb/c mouse assessed as reduction in H3K27me3 level in tumor tissue at 42.5 mg/kg, ip administered for 6 times weekly for 3 weeks by Western blot analysis; format: functional, organism-based
SU-DHL-6 [2] = test: Induction of cell cycle arrest in human SU-DHL-6 cells assessed as accumulation of cells at sub G1 phase at 1 to 5 uM after 24 hrs by flow cytometry; format: functional, cell-based; conditions: dose 1-5 µM
SU-DHL-6 [3] = test: Induction of cell cycle arrest in human SU-DHL-6 cells assessed as accumulation of cells at G0/G1 phase at 1 to 5 uM after 24 hrs by flow cytometry; format: functional, cell-based; conditions: dose 1-5 µM
SUD4 = test: Antiproliferative activity against human SU-DHL-4 cells assessed as viable cells at 10 uM by cello meter auto T4 cell counter relative to control; format: functional; conditions: read-out: Activity
SU-DHL-2 [4] = test: Antiproliferative activity against EZH2 knockdown human SUDHL2 cells assessed as cell growth inhibition measured upto 6 days; format: functional, cell-based; conditions: time day <=6
[5] = Toxicity in nude BALB/c mouse xenografted with SU-DHL-6 cells assessed as weight loss at 42.5 mg/kg, ip administered for 6 times weekly for 3 weeks; format: organism-based; conditions: in vivo, 504 h
SU-DHL-6 [6] = test: Antiproliferative activity against human SU-DHL-6 cells assessed as viable cells at 10 uM by cello meter auto T4 cell counter relative to control; format: functional; conditions: read-out: Activity
SU-DHL-2 [7] = test: Antiproliferative activity against human SUDHL2 cells assessed as viable cells at 10 uM by cello meter auto T4 cell counter relative to control; format: functional; conditions: read-out: Activity
SU-DHL-6 [8] = test: Induction of apoptosis in human SU-DHL-6 cells at 1 to 5 uM incubated for 48 hrs by Annexin V/propidium iodide staining based flow cytometry; format: functional, cell-based; conditions: dose 1-5 µM

Compound: CCN(c1cc(-c2ccc(CN3CCOCC3)cc2)cc(C(=O)NCc2c(C)cc(C)[nH]c2=O)c1C)C1CCOCC1 [TAZEMETOSTAT]
- Activity (SU-DHL-6 [1]): Active
- Activity (SU-DHL-6 [2]): inactive
- Activity (SU-DHL-6 [3]): Active
- viability at 10 µM (SUD4): 25%
- Activity (SU-DHL-2 [4]): Active
- Activity [5]: Non-Toxic
- viability at 10 µM (SU-DHL-6 [6]): 25%
- viability at 10 µM (SU-DHL-2 [7]): 25%
- Activity (SU-DHL-6 [8]): inactive
